Results: ChEMBL document CHEMBL1143050, “QSAR study on permeability of hydrophobic compounds with artificial membranes” (Bioorg Med Chem, 2007)
“And” between values parts separate entries of the source, which are not always exact repeats. Equal entries are not always repeated.

How the values were obtained:
[1] = Permeability coefficient through artificial membrane in presence of stirred water layer
[2] = Permeability coefficient through artificial membrane in presence of unstirred water layer by PAMPA
[3] = Intrinsic artificial membrane permeability coefficient, log P0 of the compound; assay type: ADME
[4] = Partition coefficient, log P of the compound; details: octanol/water
Caco-2 [5] = assay: Permeability from basolateral to apical side of the Caco-2 cell membrane; assay type: ADME, cell-based; details: human
Caco-2 [6] = assay: Permeability from apical to basolateral side of the Caco-2 cell membrane; assay type: ADME, cell-based; details: human
[7] = Permeability coefficient through artificial membrane in presence of stirred water layer at 200 rpm stirring speed; assay type: ADME
[8] = Permeability coefficient through artificial membrane in presence of stirred water layer at 100 rpm stirring speed; assay type: ADME
[9] = Permeability coefficient through artificial membrane in presence of stirred water layer at 250 rpm stirring speed; assay type: ADME

| SMILES | Papp ([1]; PAMPA) [×10⁻⁶ cm/s] | LogP app ([1]; artificial membrane) | LogP app [2] | Papp [2] [×10⁻⁶ cm/s] | logPm [3] | logP [4] | LogP app (Caco-2 [5]) | LogP app (Caco-2 [6]) | LogP app [7] | LogP app [8] | LogP app ([1]; PAMPA) | LogP app [9] |
| --- | --- | --- | --- | --- | --- | --- | --- | --- | --- | --- | --- | --- |
| C=CCc1ccccc1OCC(O)CNC(C)C (configuration not stated) [ALPRENOLOL] | 61.4 | -4.21 | -4.7 | 11.5 | -1.02 | 2.65 | – | – | – | – | – | – |
| COc1ccc([C@@H]2Sc3ccccc3N(CCN(C)C)C(=O)[C@@H]2OC(C)=O)cc1 [DILTIAZEM] | – | – | -4.64 | 0.34 | -1.85 | 2.8 | – | – | – | – | – | – |
| CCOP(=S)(OCC)Oc1cc(C)nc(C(C)C)n1 [DIMPYLATE] | 31.1 | -4.51 | -5.28 | 5.21 | – | 3.3 | -4.42 | -4.32 | – | – | – | – |
| c1ccc(Nc2ccccc2)cc1 [DIPHENYLAMINE] | 15 | -4.82 | -5.51 | 3.1 | – | – | -4.35 | -4.4 | – | – | – | – |
| CC(C)Cc1ccc(C(C)C(=O)O)cc1 (configuration not stated) [IBUPROFEN] | – | – | -4.67 and -4.72 | – | -1.15 | – | – | – | – | – | – | – |
| CC(C)OP(=O)(OC(C)C)SCc1ccccc1 [IPROBENFOS] | 362 | -3.44 | -4.93 | 11.7 | – | 3.21 | -4.35 | -4.28 | – | – | – | – |
| CC(C(=O)O)c1cccc(C(=O)c2ccccc2)c1 (configuration not stated) [KETOPROFEN] | – | – | – | – | -2.43 | – | – | – | -5.49 | -5.55 | – | – |
| COCCc1ccc(OCC(O)CNC(C)C)cc1 (configuration not stated) [METOPROLOL] | 14.3 | -4.84 | -5.1 and -4.95 | – | -1.75 | – | – | – | – | – | – | – |
| CN1C(C(=O)Nc2ccccn2)=C(O)c2ccccc2S1(=O)=O [PIROXICAM] | 19.2 | -4.72 | – | – | -2.08 | 1.98 | – | – | – | – | – | – |
| O=C(O)c1ccccc1O [SALICYLIC ACID] | 4.9 | – | – | – | -3.46 | – | – | – | – | – | -5.31 | – |
| C[C@]12CC[C@H]3[C@@H](CCC4=CC(=O)CC[C@@]43C)[C@@H]1CC[C@@H]2O [TESTOSTERONE] | 136 | -3.87 | -4.95 and -4.77 | – | – | – | – | – | -4.08 | -4.29 | – | -3.87 |
